The results in this text go back to patent US6583265B1, “Cyclosporins” (C-Chem AG, priority 1998, dated 2003).

Peptide text beside a SMILES is read from it.

Assay [1] has as its system T. gondii tachyzoites, strain RH. The assay is classed as cell-based, Toxoplasma gondii. Particulars: 72 h. As for the experimental part: Using microliter plates, T. gondii tachyzoites, strain RH were co-incubated with fibroblasts (MCR5, Bio-Merieux) for 72 hrs in the presence and absence of test compounds T. gondii was quantified using an ELISA. The activities of the test compounds are as follows: […]

A short description of assay [2]: Antiinflammatory activity, adjuvent arthritis test (Pearson). Particulars: oral, solutions in olive oil and tween 80. The assay is classed as in vivo. As for the experimental part:
The antiinflammatory activity of test compounds was determined by the adjuvent arthritis test described by Pearson, “Arthr. Rheum”, 1959, Vol. 2., 440. Test compounds were administered orally as solutions in olive oil and tween 80.

For assay [3], the target named is cyclophilin (Homo sapiens, UniProt P62937). The assay is described as follows: Test for cyclophilin binding (Fliri). Particulars: ratio to cyclosporin A. The text has this:
To measure the affinity and inhibition of test compounds for cyclophilin, the test described by H. Fliri in “Antibiotics and Antiviral compounds”, 1993, Verlag Chemie, K.Krohn, H. A. Kirst, and H. Maag, eds., p 229-240 was used.

For assay [4], the target named is recombinant human cyclophilin 18 (Homo sapiens, UniProt P62937). The assay is described as follows: Test for inhibition of cyclophilin (chymotrypsin-coupled hydrolysis of Succ-Ala-Phe-Pro-Phe-4-nitroanilide). Particulars: recombinant human cyclophilin 18, 10 °C, HEPES buffer, 5 minutes preincubation, substrate 50 μM. The assay is classed as biochemical. As for the experimental part: The test described by G. Fischer et al., Biomed. Biochim. Acta, Vol. 43, 1101-1111 (1984) was used. Specifically, 5 μL of a 1 μM solution of recombinant human cyclophilin 18 was dissolved, at 10,0±0.3° C. in 1250 μL HEPES buffer; α-chymotrypsin was added to give a final concentration of 30 μM. […] After 5 minutes preincubation, Succ-Ala-Phe-Pro-Phe-4-nitroanilide (SEQ ID No. 1) was added to give a final concentration of 50 μM. The hydrolysis of the substrate was measured spectrophotometrically at […].

Broadly, the IC50 is the concentration that gives 50% inhibition.

Chain of recombinant human cyclophilin 18 (P62937 whole entry): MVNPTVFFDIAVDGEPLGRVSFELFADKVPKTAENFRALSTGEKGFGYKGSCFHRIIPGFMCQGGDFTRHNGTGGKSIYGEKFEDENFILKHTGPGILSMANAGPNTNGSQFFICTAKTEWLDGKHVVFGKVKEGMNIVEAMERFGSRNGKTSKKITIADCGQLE
Chain of cyclophilin (P62937 whole entry): as above

As for `C/C=C/C[C@@H](C)[C@@H](O)[C@H]1C(=O)N[C@@H](CC)C(=O)N(C)C(OCC)C(=O)N(C)[C@@H](CC(C)C)C(=O)N[C@@H](C(C)C)C(=O)N(C)[C@@H](CC(C)C)C(=O)N[C@@H](C)C(=O)N[C@H](C)C(=O)N(C)[C@@H](CC(C)C)C(=O)N(C)[C@@H](CC(C)C)C(=O)N(C)[C@@H](C(C)C)C(=O)N1C` (some centres unmarked) [Example 15, 3-Ethoxycyclosporin] (HELM PEPTIDE1{[C/C=C/C[C@@H](C)[C@@H](O)[C@@H](C(=O)[*:2])N(C)[*:1]].[Abu].[CCOC(C(=O)[*:2])N(C)[*:1]].[meL].V.[meL].A.[dA].[meL].[meL].[meV]}$PEPTIDE1,PEPTIDE1,1:R1-11:R2$$$V2.0), the “Activity against T. gondii (IC50)” value in assay [1] came to 0.6 µg/mL. Besides, in assay [2], the “ED50, dose effective in reducing the joint swelling by 50%” value is on record as 15 mg/kg. In assay [3], the Relative IC50, i.e. IC50 (cyclosporin A)/IC50 (test compound) is 2.
`C/C=C/C[C@@H](C)[C@@H](O)[C@H]1C(=O)N[C@@H](CC)C(=O)N(C)[C@H](OC(C)(C)C)C(=O)N(C)[C@@H](CC(C)C)C(=O)N[C@@H](C(C)C)C(=O)N(C)[C@@H](CC(C)C)C(=O)N[C@@H](C)C(=O)N[C@H](C)C(=O)N(C)[C@@H](CC(C)C)C(=O)N(C)[C@@H](CC(C)C)C(=O)N(C)[C@@H](C(C)C)C(=O)N1C` [Example 17, [D-Sar-(tert.-butoxy)^3]-cyclosporin] (HELM PEPTIDE1{[C/C=C/C[C@@H](C)[C@@H](O)[C@@H](C(=O)[*:2])N(C)[*:1]].[Abu].[CN([C@H](OC(C)(C)C)C(=O)[*:2])[*:1]].[meL].V.[meL].A.[dA].[meL].[meL].[meV]}$PEPTIDE1,PEPTIDE1,1:R1-11:R2$$$V2.0): the IC50 in assay [4] amounted to 18.9 ± 1.03 nM.
For `C=CCO[C@@H]1C(=O)N(C)[C@@H](CC(C)C)C(=O)N[C@@H](C(C)C)C(=O)N(C)[C@@H](CC(C)C)C(=O)N[C@@H](C)C(=O)N[C@H](C)C(=O)N(C)[C@@H](CC(C)C)C(=O)N(C)[C@@H](CC(C)C)C(=O)N(C)[C@@H](C(C)C)C(=O)N(C)[C@@H]([C@H](O)[C@H](C)C/C=C/C)C(=O)N[C@@H](CC)C(=O)N1C` [Example 18, [D-Sar-(allyloxy)^3]-cyclosporin] (HELM PEPTIDE1{[C/C=C/C[C@@H](C)[C@@H](O)[C@@H](C(=O)[*:2])N(C)[*:1]].[Abu].[C=CCO[C@H](C(=O)[*:2])N(C)[*:1]].[meL].V.[meL].A.[dA].[meL].[meL].[meV]}$PEPTIDE1,PEPTIDE1,1:R1-11:R2$$$V2.0), the IC50 in assay [4] was 10.2 ± 2.21 nM.
